Test results taken from publication PMC3388095, “Fluorophore Labeled Kinase Detects Ligands That Bind within the MAPK Insert of p38α Kinase” (PLoS ONE, 2012).

How the values were obtained:
Experiment in all cases: Kinase selectivity profile, 33P-ATP filter-binding assay
Type in all cases: biochemical
BRSK1 = BRSK1 (Homo sapiens, UniProt Q8TDC3)
Experimental: (§1) Figure 5 Kinase selectivity profile of 1b. Compound 1b was profiled against a selected panel of 95 different kinases at a concentration of 10 µM employing a radioactive (^33P-ATP) filter-binding assay (National Centre for Protein Kinase Profiling, Dundee). The numbers represent the remaining kinase activity in %. […] TEXT PRINTED IN THE PICTURE: no label printed: Aurora B: 53; MNK2: 67; MINK1: 69; HER4: 71; MKK1: 75; PKBβ: 75; PHK: 76; PIM2: 76; PIM3: 77; CHK2: 78; PKD1: 79; TBK1: 79; PAK4: 80; Lck: 80; GSK3β: 80; IGF-1R: 81; p38δ MAPK: 81; PIM1: 82; SRPK1: 83; SmMLCK: 83; MAPKAP-K3: 84; EPH A2: 85; MELK: 85; CK2: 85; CK1: 86; CAMK1: 86; PLK1: 87; MST2: 87; IR-HIS: 87; BTK: 87; HIPK1: 87; p38α MAPK: 88; DYRK2: 88; JNK3: 88; PAK5: 88; IKKε: 89; p38β MAPK: 89; NUAK1: 90; PAK2: 90; MNK1: 91; ERK8: 91; GCK: 91; PRAK: 91; MLK1: 92; SGK1: 92; PAK6: 92; TTK: 92; BRSK2: 92; MARK4: 93; CHK1: 93; RIPK2: 94; CDK2-Cyclin A: 94; JNK1: 94; AMPK: 94; VEG-FR: 95; DYRK1A: 95; CAMKKβ: 95; PKCα: 96; S6K1: 96; MSK1: 96; PKCz: 96; YES1: 96; RSK1: 97; IRAK4: 97; DYRK3: 97; IKKβ: 97; ERK2: 98; MLK3: 98; RSK2: 98; LKB1: 98; MAPKAP-K2: 98; ERK1: 99; FGF-R1: 99; SYK: 99; MST4: 99; MARK3: 99; MARK2: 100; PDK1: 100; JNK2: 101; HIPK2: 101; BRSK1: 102; EF2K: 102; PRK2: 103; Aurora A: 104; IRR: 104; CSK: 104; PKA: 104; NEK6: 105; p38γ MAPK: 105; Src: 107; PKBα: 109; ROCK 2: 109; EPH-B3: 112; HIPK3: 115; NEK2α: 119 DOUBTS OF THE COPYIST ABOUT THIS PICTURE: The picture prints no compound label and no measure or unit for the numbers; only the colour scale 'Inhibition weak/strong' is printed. / PKCz: the last letter may be z or ζ / NEK2α: the last letter may be a or α / IKKε: the last letter may be ε or e

BRSK2 = BRSK2 (Homo sapiens, UniProt Q8IWQ3)
BRSK2, sequence (Q8IWQ3 whole entry): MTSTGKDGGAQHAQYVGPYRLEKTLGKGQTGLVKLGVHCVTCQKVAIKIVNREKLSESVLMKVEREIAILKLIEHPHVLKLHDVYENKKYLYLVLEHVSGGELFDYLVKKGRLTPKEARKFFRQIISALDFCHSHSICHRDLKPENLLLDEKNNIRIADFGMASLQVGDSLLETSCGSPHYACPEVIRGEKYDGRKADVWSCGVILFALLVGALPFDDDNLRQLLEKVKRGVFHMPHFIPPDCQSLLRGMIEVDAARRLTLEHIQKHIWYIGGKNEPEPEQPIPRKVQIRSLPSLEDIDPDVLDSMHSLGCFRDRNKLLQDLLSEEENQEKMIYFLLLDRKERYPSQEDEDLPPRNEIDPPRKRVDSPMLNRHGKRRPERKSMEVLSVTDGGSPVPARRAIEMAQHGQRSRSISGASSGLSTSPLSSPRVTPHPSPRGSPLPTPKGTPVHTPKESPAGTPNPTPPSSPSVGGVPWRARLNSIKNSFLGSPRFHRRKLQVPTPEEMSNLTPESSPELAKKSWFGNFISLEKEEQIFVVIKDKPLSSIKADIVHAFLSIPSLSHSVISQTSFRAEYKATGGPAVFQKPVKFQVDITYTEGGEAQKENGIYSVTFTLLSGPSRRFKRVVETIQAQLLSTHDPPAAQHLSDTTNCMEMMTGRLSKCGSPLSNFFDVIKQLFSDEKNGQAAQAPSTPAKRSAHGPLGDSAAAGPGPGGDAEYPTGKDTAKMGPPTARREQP
Experimental: as §1

CAMKKβ = CAMKKβ (Homo sapiens, UniProt Q96RR4)
Experimental: as §1

CHK1 = CHK1 (Homo sapiens, UniProt O14757)
Experimental: as §1

EF2K = EF2K (Homo sapiens, UniProt O00418)
Experimental: as §1

EPH A2 = EPH A2 (Homo sapiens, UniProt P29317)
Experimental: as §1

ERK1 = ERK1 (Homo sapiens, UniProt P27361)
Experimental: as §1

HIPK1 = HIPK1 (Homo sapiens, UniProt Q86Z02)
Experimental: as §1

IGF-1R = IGF-1R (Homo sapiens, UniProt P08069)
Experimental: as §1

IKKε = IKKε (Homo sapiens, UniProt Q14164)
Experimental: as §1

IR-HIS = IR-HIS (Homo sapiens, UniProt P06213)
Experimental: as §1

IRAK4 = IRAK4 (Homo sapiens, UniProt Q9NWZ3)
IRAK4, sequence (Q9NWZ3 whole entry): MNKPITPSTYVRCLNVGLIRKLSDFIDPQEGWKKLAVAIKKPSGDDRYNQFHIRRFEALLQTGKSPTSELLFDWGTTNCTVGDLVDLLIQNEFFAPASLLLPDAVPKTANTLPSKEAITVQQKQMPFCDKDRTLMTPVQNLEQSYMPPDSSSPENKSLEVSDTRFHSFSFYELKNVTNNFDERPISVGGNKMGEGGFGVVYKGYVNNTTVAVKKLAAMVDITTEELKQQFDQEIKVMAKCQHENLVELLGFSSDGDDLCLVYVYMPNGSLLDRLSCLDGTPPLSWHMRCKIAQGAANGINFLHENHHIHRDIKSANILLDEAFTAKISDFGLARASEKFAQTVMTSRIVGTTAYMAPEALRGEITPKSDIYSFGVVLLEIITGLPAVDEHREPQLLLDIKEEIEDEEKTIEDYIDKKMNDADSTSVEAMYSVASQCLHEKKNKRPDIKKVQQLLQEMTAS
Experimental: as §1

JNK3 = JNK3 (Homo sapiens, UniProt P53779)
Experimental: as §1

Lck = Lck (Homo sapiens, UniProt P06239)
Experimental: as §1

MKK1 = MKK1 (Homo sapiens, UniProt Q02750)
MKK1, sequence (Q02750 whole entry): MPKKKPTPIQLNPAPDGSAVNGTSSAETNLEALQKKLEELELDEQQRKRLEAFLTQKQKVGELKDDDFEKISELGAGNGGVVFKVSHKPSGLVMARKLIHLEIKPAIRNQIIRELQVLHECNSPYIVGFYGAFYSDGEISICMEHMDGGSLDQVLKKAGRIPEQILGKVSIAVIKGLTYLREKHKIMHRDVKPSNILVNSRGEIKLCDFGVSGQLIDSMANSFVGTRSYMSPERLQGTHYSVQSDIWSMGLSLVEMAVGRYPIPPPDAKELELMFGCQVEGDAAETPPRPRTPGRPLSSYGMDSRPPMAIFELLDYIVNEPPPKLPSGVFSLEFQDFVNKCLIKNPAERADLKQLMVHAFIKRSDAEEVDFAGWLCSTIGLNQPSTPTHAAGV
Experimental: as §1

MNK2 = MNK2 (Homo sapiens, UniProt Q9HBH9)
Experimental: as §1

PAK5 = PAK5 (Homo sapiens, UniProt Q9P286)
Experimental: as §1

PAK6 = PAK6 (Homo sapiens, UniProt Q9NQU5)
PAK6, sequence (Q9NQU5 whole entry): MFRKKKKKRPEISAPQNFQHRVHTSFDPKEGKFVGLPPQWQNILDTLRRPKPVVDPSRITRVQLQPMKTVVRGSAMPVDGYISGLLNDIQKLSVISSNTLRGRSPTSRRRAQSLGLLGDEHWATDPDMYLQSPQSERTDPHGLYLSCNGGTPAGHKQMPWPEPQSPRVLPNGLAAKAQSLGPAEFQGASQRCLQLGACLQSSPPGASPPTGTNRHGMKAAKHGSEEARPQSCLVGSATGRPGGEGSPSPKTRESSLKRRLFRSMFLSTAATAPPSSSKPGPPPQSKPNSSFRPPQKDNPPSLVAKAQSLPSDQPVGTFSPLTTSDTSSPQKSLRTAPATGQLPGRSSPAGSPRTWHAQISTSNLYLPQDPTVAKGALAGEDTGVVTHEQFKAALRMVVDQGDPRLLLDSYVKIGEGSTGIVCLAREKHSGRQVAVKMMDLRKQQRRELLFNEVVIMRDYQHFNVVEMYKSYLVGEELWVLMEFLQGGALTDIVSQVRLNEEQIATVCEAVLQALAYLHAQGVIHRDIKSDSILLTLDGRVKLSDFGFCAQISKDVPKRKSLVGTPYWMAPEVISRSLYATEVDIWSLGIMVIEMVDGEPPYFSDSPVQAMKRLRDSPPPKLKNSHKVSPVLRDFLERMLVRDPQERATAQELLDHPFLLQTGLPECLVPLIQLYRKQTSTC
Experimental: as §1

PIM3 = PIM3 (Homo sapiens, UniProt Q86V86)
Experimental: as §1

PKBα = PKBα (Homo sapiens, UniProt P31749)
Experimental: as §1

PKD1 = PKD1 (Homo sapiens, UniProt Q15139)
PKD1, sequence (Q15139 whole entry): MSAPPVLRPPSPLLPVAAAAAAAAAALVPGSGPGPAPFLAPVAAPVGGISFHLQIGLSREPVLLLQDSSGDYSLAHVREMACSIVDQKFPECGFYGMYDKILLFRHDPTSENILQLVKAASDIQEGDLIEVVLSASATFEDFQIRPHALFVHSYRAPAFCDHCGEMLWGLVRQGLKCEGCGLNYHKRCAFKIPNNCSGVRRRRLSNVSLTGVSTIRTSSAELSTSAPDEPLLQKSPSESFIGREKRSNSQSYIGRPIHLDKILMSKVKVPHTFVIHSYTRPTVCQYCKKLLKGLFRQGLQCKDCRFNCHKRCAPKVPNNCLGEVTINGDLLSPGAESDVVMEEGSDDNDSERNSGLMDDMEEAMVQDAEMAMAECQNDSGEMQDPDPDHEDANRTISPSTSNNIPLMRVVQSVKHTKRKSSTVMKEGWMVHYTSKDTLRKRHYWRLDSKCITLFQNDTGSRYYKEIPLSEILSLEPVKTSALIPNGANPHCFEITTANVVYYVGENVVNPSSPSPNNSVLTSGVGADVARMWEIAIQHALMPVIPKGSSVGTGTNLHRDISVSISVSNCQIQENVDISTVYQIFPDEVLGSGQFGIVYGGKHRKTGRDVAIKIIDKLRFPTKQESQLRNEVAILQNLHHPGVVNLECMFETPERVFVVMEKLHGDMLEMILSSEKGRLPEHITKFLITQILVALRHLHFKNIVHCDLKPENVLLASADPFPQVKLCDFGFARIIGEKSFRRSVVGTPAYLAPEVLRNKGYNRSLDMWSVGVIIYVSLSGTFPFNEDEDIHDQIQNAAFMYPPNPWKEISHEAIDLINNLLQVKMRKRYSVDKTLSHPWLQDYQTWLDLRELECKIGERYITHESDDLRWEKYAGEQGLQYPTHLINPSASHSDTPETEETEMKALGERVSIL
Experimental: as §1

ROCK 2 = ROCK 2 (Rattus norvegicus, UniProt Q62868)
Experimental: as §1

RSK1 = RSK1 (Homo sapiens, UniProt Q15418)
RSK1, sequence (Q15418 whole entry): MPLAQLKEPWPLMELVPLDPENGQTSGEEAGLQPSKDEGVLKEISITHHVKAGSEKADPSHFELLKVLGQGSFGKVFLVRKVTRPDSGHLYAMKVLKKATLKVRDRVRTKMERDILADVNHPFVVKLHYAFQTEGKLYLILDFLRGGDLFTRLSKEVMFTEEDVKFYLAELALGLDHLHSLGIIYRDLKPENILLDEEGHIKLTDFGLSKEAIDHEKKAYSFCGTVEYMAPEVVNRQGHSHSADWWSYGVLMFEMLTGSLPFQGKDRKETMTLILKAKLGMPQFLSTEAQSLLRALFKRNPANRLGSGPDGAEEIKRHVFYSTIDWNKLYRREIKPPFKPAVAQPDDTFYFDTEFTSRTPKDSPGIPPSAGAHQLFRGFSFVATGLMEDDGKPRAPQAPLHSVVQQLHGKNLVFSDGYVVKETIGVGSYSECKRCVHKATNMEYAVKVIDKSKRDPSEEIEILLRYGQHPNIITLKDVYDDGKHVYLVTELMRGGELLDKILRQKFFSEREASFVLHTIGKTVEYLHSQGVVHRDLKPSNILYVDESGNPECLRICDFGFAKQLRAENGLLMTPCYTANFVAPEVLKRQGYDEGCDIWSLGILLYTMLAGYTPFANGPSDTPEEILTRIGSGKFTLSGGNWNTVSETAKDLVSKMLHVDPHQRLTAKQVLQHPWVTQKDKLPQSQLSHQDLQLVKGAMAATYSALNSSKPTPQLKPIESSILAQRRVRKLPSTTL
Experimental: as §1

SmMLCK = SmMLCK (Homo sapiens, UniProt Q15746)
Experimental: as §1

Src = Src (Homo sapiens, UniProt P12931)
Src, sequence (P12931 whole entry): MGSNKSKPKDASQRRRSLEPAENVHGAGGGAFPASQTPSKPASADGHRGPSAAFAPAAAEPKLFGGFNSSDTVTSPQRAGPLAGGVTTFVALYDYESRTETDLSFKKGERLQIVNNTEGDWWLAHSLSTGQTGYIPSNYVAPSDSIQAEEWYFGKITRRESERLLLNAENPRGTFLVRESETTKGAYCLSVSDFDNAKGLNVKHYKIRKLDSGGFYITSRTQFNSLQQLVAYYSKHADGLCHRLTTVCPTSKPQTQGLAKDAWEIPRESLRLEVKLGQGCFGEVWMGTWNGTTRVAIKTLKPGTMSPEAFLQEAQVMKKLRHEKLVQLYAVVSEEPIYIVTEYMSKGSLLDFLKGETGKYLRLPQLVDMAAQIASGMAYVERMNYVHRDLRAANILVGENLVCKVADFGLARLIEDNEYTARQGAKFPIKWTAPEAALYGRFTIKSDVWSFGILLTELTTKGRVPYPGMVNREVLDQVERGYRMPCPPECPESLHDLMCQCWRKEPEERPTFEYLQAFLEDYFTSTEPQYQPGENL
Experimental: as §1

p38β MAPK = p38β MAPK (Homo sapiens, UniProt Q15759)
p38β MAPK, sequence (Q15759 whole entry): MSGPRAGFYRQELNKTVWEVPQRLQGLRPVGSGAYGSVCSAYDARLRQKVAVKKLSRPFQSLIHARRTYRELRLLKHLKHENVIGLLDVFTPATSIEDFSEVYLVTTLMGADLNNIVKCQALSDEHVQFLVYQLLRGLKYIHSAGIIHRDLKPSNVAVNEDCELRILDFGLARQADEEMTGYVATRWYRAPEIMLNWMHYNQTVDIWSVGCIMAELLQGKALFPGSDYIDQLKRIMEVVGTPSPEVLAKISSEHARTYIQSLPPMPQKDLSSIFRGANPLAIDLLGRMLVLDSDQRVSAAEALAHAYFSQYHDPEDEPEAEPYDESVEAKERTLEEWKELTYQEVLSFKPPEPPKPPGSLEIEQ
Experimental: as §1

p38δ MAPK = p38δ MAPK (Homo sapiens, UniProt O15264)
Experimental: as §1

Nc1ccc2c(NC3CC3)nc(-c3ccccc3)nc2c1 [1b, N^4-Cyclopropyl-2-phenyl-4,7-quinazolinediamine]
remaining activity at 10 µM (BRSK1): 102% | remaining activity at 10 µM (BRSK2): 92% | remaining activity at 10 µM (CAMKKβ): 95% | remaining activity at 10 µM (CHK1): 93% | remaining activity at 10 µM (EF2K): 102% | remaining activity at 10 µM (EPH A2): 85% | remaining activity at 10 µM (ERK1): 99% | remaining activity at 10 µM (HIPK1): 87% | remaining activity at 10 µM (IGF-1R): 81% | remaining activity at 10 µM (IKKε): 89% | remaining activity at 10 µM (IR-HIS): 87% | remaining activity at 10 µM (IRAK4): 97% | remaining activity at 10 µM (JNK3): 88% | remaining activity at 10 µM (Lck): 80% | remaining activity at 10 µM (MKK1): 75% | remaining activity at 10 µM (MNK2): 67% | remaining activity at 10 µM (PAK5): 88% | remaining activity at 10 µM (PAK6): 92% | remaining activity at 10 µM (PIM3): 77% | remaining activity at 10 µM (PKBα): 109% | remaining activity at 10 µM (PKD1): 79% | remaining activity at 10 µM (ROCK 2): 109% | remaining activity at 10 µM (RSK1): 97% | remaining activity at 10 µM (SmMLCK): 83% | remaining activity at 10 µM (Src): 107% | remaining activity at 10 µM (p38β MAPK): 89% | remaining activity at 10 µM (p38δ MAPK): 81%
